Species: Rattus norvegicus
Assay: Open TG-GATES - Regimen: Single
Format: toxicity, organism-based, Sprague-Dawley
Design: regimen Single, gender Male, age 6 weeks
Details: in vivo, po, 150 mg/kg, route gavage, dose level Middle; for APTT / Bas / Eos / Fbg / Hb / Ht / Lym / MCH / MCHC / MCV / Mono / Neu / PT / Plat / RBC / Ret / WBC: tissue Blood; for KIDNEY_L / KIDNEY_R / KIDNEY_TOTAL: tissue Kidney; for LIVER: tissue Liver; for ALP / ALT / AST / BUN / CRE / DBIL / GLC / K / LDH / Na / PL / RALB / TBIL / TC / TG / TP / gamma-GTP: tissue Plasma

SMILES: CC(CCc1ccccc1)NCC(O)c1ccc(O)c(C(N)=O)c1 (stereo unspecified) [LABETALOL]
- TERMINAL_BW (3 h): 215.7 g
- APTT (3 h): 16.5 s
- Bas (3 h): 0%
- Eos (3 h): 0.8%
- Fbg (3 h): 263.6 mg/dL
- Hb (3 h): 12.4 g/dL
- Ht (3 h): 36.2%
- Lym (3 h): 77%
- MCH (3 h): 21.9 pg
- MCHC (3 h): 34.1%
- MCV (3 h): 64.2 fL
- Mono (3 h): 3%
- Neu (3 h): 18.6%
- PT (3 h): 13.3 s
- Plat (3 h): 115.1 x10_4/uL
- RBC (3 h): 564.6 x10_4/ul
- Ret (3 h): 8.3%
- WBC (3 h): 77.1 x10_2/uL
- KIDNEY_L (3 h): 1 g
- KIDNEY_R (3 h): 0.9 g
- KIDNEY_TOTAL (3 h): 1.9 g
- LIVER (3 h): 9.4 g
- ALP (3 h): 1401.4 IU/L
- ALT (3 h): 46 IU/L
- AST (3 h): 73.6 IU/L
- BUN (3 h): 12 mg/dL
- CRE (3 h): 0.2 mg/dL
- DBIL (3 h): 0.01 mg/dL
- GLC (3 h): 207.2 mg/dL
- K (3 h): 3.7 meq/L
- LDH (3 h): 48.6 IU/L
- Na (3 h): 142.2 meq/L
- PL (3 h): 125.2 mg/dL
- RALB (3 h): 2.5 g/dL
- TBIL (3 h): 0.042 mg/dL
- TC (3 h): 70 mg/dL
- TG (3 h): 49.4 mg/dL
- TP (3 h): 5.2 g/dL
- gamma-GTP (3 h): 1.4 IU/L
- TERMINAL_BW (6 h): 215.9 g
- APTT (6 h): 15.9 s
- Bas (6 h): 0%
- Eos (6 h): 1%
- Fbg (6 h): 269.8 mg/dL
- Hb (6 h): 12.5 g/dL
- Ht (6 h): 36.5%
- Lym (6 h): 74.6%
- MCH (6 h): 21.1 pg
- MCHC (6 h): 34.3%
- MCV (6 h): 61.7 fL
- Mono (6 h): 3.6%
- Neu (6 h): 20.2%
- PT (6 h): 13.1 s
- Plat (6 h): 106.3 x10_4/uL
- RBC (6 h): 593.6 x10_4/ul
- Ret (6 h): 7.9%
- WBC (6 h): 81 x10_2/uL
- KIDNEY_L (6 h): 0.9 g
- KIDNEY_R (6 h): 0.9 g
- KIDNEY_TOTAL (6 h): 1.8 g
- LIVER (6 h): 8.9 g
- ALP (6 h): 1487.8 IU/L
- ALT (6 h): 39.4 IU/L
- AST (6 h): 71 IU/L
- BUN (6 h): 9.4 mg/dL
- CRE (6 h): 0.2 mg/dL
- DBIL (6 h): 0.01 mg/dL
- GLC (6 h): 199.4 mg/dL
- K (6 h): 4.2 meq/L
- LDH (6 h): 44.8 IU/L
- Na (6 h): 142.8 meq/L
- PL (6 h): 126 mg/dL
- RALB (6 h): 2.4 g/dL
- TBIL (6 h): 0.04 mg/dL
- TC (6 h): 73.2 mg/dL
- TG (6 h): 41.8 mg/dL
- TP (6 h): 5.1 g/dL
- gamma-GTP (6 h): 1 IU/L
- TERMINAL_BW (9 h): 213.9 g
- APTT (9 h): 15.6 s
- Bas (9 h): 0%
- Eos (9 h): 0.8%
- Fbg (9 h): 287.8 mg/dL
- Hb (9 h): 12.5 g/dL
- Ht (9 h): 37.1%
- Lym (9 h): 77.6%
- MCH (9 h): 21.8 pg
- MCHC (9 h): 33.7%
- MCV (9 h): 64.8 fL
- Mono (9 h): 1.8%
- Neu (9 h): 19.6%
- PT (9 h): 13.2 s
- Plat (9 h): 106.5 x10_4/uL
- RBC (9 h): 572.4 x10_4/ul
- Ret (9 h): 8.2%
- WBC (9 h): 82.4 x10_2/uL
- KIDNEY_L (9 h): 0.9 g
- KIDNEY_R (9 h): 0.9 g
- KIDNEY_TOTAL (9 h): 1.9 g
- LIVER (9 h): 8.7 g
- ALP (9 h): 1516.4 IU/L
- ALT (9 h): 41.4 IU/L
- AST (9 h): 68.4 IU/L
- BUN (9 h): 10.2 mg/dL
- CRE (9 h): 0.2 mg/dL
- DBIL (9 h): 0.01 mg/dL
- GLC (9 h): 185.4 mg/dL
- K (9 h): 3.9 meq/L
- LDH (9 h): 42.4 IU/L
- Na (9 h): 144.6 meq/L
- PL (9 h): 136.6 mg/dL
- RALB (9 h): 2.6 g/dL
- TBIL (9 h): 0.036 mg/dL
- TC (9 h): 77.8 mg/dL
- TG (9 h): 56.6 mg/dL
- TP (9 h): 5.5 g/dL
- gamma-GTP (9 h): 1.2 IU/L
- TERMINAL_BW (24 h): 223.2 g
- APTT (24 h): 14.8 s
- Bas (24 h): 0%
- Eos (24 h): 1%
- Fbg (24 h): 345.2 mg/dL
- Hb (24 h): 13.1 g/dL
- Ht (24 h): 38.4%
- Lym (24 h): 71.6%
- MCH (24 h): 21 pg
- MCHC (24 h): 34.2%
- MCV (24 h): 61.4 fL
- Mono (24 h): 3.8%
- Neu (24 h): 23%
- PT (24 h): 12.7 s
- Plat (24 h): 116.5 x10_4/uL
- RBC (24 h): 625.6 x10_4/ul
- Ret (24 h): 8.2%
- WBC (24 h): 77.1 x10_2/uL
- KIDNEY_L (24 h): 0.9 g
- KIDNEY_R (24 h): 0.9 g
- KIDNEY_TOTAL (24 h): 1.8 g
- LIVER (24 h): 10.1 g
- ALP (24 h): 1738.6 IU/L
- ALT (24 h): 45.6 IU/L
- AST (24 h): 76 IU/L
- BUN (24 h): 16.6 mg/dL
- CRE (24 h): 0.2 mg/dL
- DBIL (24 h): 0.016 mg/dL
- GLC (24 h): 180.6 mg/dL
- K (24 h): 4.3 meq/L
- LDH (24 h): 72.6 IU/L
- Na (24 h): 143.2 meq/L
- PL (24 h): 159.6 mg/dL
- RALB (24 h): 2.6 g/dL
- TBIL (24 h): 0.038 mg/dL
- TC (24 h): 92 mg/dL
- TG (24 h): 96.4 mg/dL
- TP (24 h): 5.7 g/dL
- gamma-GTP (24 h): 1.2 IU/L

Reference: ChEMBL document CHEMBL3885861, “Open TG-GATES”
